In brackets after ≈: the same amount, converted by molar mass.
Experiments:
Assay type in all cases: cell-based
[1] = system: Escherichia Coli ATCC 25922; conditions: Mueller-Hinton broth, 37° C., 18 to 20 hours; for Minimal bactericidal concentration, Escherichia Coli ATCC 25922: plate counting on sheep blood agar
Procedure: (§1) Four strains were selected: Escherichia Coli ATCC 25922, Staphylococcus Aureus ATCC 25923, Pseudomonas Aeruginosa ATCC 27853 and a clinical isolated methicillin resistant Staphylococcus Aureus strain. Antibacterial activity of the molecules was tested by dilution method in Mueller-Hinton broth in order to determine the minimal inhibitory concentration (MIC) and the minimal bactericidal concentration (MBC). At least two independent assays were done. Stock solutions were obtained by solubilizing molecule powders in distilled water at concentration of 2.56 mg/mL and serial 2-fold diluted solutions were prepared. Bacterial inoculum was standardized by using direct suspensions of colonies from overnight growth in saline adjusted to a turbidity matching the 0.5 McFarland standard, and diluted to obtain a density comprised between 10^5 CFU/mL and 10^7 CFU/mL. Tubes containing 900 μL of inoculum with 100 μL of molecules solutions were incubated in air at 37° C. for 18 to 20 hours. Purity and inoculum density as well as percentage of viable bacteria in limpid tubes were checked by plate counting on sheep blood agar. Broth not containing any molecule solution was inoculated with each selected bacterial strain as a control for organism viability (growth control). The susceptibility of S. Aureus strains against vancomycin was used as an internal control as well as the activity of melittin.

[2] = system: Pseudomonas Aeruginosa ATCC 27853; conditions: Mueller-Hinton broth, 37° C., 18 to 20 hours; for Minimal bactericidal concentration, Pseudomonas Aeruginosa ATCC 27853: plate counting on sheep blood agar
Procedure: as §1

[3] = system: Staphylococcus Aureus ATCC 25923; assay: microbe, parasite or virus in culture; conditions: for Minimal inhibitory concentration, Staphylococcus Aureus ATCC / Minimal bactericidal concentration, Staphylococcus Aureus ATCC: Mueller-Hinton broth, 37° C., 18 to 20 hours; for Minimal bactericidal concentration, Staphylococcus Aureus ATCC: plate counting on sheep blood agar
Procedure: as §1

[4] = system: clinical isolated methicillin resistant Staphylococcus Aureus strain; assay: microbe, parasite or virus in culture; conditions: Mueller-Hinton broth, 37° C., 18 to 20 hours; for Minimal bactericidal concentration, clinical isolated methicillin resistant Staphylococcus Aureus strain: plate counting on sheep blood agar
Procedure: as §1

How did the “Minimal inhibitory concentration, Escherichia Coli ATCC 25922” value [1] turn out when `CC(C)NC(=O)N[C@H](CNC(=O)N[C@@H](CCCCN)CNC(=O)N[C@H](CNC(=O)N[C@H](CNC(=O)N[C@@H](CCCCN)CNC(=O)N[C@H](CNC(=O)N[C@@H](CCCCN)CNC(=O)N[C@H](CCC(N)=O)C(C)C)Cc1c[nH]c2ccccc12)C(C)C)Cc1c[nH]c2ccccc12)C(C)C` [Mol-4] was run?
Its value is 32 µg/mL (≈ 23.1 µM).

What about the “Minimal bactericidal concentration, Escherichia Coli ATCC 25922” value [1] of the same compound?
Its value is 64 µg/mL (≈ 46.1 µM).

And the “Minimal inhibitory concentration, Pseudomonas Aeruginosa ATCC 27853” value [2]?
Its value is 128 µg/mL (≈ 92.2 µM).

And the “Minimal bactericidal concentration, Pseudomonas Aeruginosa ATCC 27853” value [2]?
The value was 256 µg/mL (≈ 184 µM).

What about the “Minimal inhibitory concentration, Staphylococcus Aureus ATCC” value [3] of the same compound?
Its value is 8 µg/mL (≈ 5.76 µM).

What about the “Minimal bactericidal concentration, Staphylococcus Aureus ATCC” value [3] of the same compound?
Its value is less than 16 µg/mL.

And the “Minimal inhibitory concentration, clinical isolated methicillin resistant Staphylococcus Aureus strain” value [4]?
The value was 16 µg/mL (≈ 11.5 µM).

What about the “Minimal bactericidal concentration, clinical isolated methicillin resistant Staphylococcus Aureus strain” value [4] of the same compound?
The value was 64 µg/mL (≈ 46.1 µM).

Which results are given for `CC(C)NC(=O)N[C@H](CNC(=O)N[C@@H](CCCCN)CNC(=O)N[C@H](CNC(=O)N[C@H](CNC(=O)N[C@@H](CCCCN)CNC(=O)N[C@H](CNC(=O)N[C@@H](CCCCN)CNC(N)=O)Cc1c[nH]c2ccccc12)C(C)C)Cc1c[nH]c2ccccc12)C(C)C` [Mol-8]?
Minimal inhibitory concentration, Escherichia Coli ATCC 25922 [1]: 32 µg/mL (≈ 25.4 µM); Minimal bactericidal concentration, Escherichia Coli ATCC 25922 [1]: 256 µg/mL (≈ 203 µM); Minimal inhibitory concentration, Pseudomonas Aeruginosa ATCC 27853 [2]: 64 µg/mL (≈ 50.8 µM); Minimal bactericidal concentration, Pseudomonas Aeruginosa ATCC 27853 [2]: >256 µg/mL; Minimal inhibitory concentration, Staphylococcus Aureus ATCC [3]: 32 µg/mL (≈ 25.4 µM); Minimal bactericidal concentration, Staphylococcus Aureus ATCC [3]: 32 µg/mL (≈ 25.4 µM)

What does the source list for `CC[C@H](C)[C@H](NC(=O)CN)C(=O)NCC(=O)N[C@@H](C)C(=O)N[C@H](C(=O)N[C@@H](CC(C)C)C(=O)N[C@@H](CCCCN)C(=O)N[C@H](C(=O)N[C@@H](CC(C)C)C(=O)N[C@H](C(=O)N[C@H](C(=O)NCC(=O)N[C@@H](CC(C)C)C(=O)N1CCC[C@H]1C(=O)N[C@@H](C)C(=O)N[C@@H](CC(C)C)C(=O)N[C@H](C(=O)N[C@@H](CO)C(=O)N[C@@H](Cc1c[nH]c2ccccc12)C(=O)N[C@H](C(=O)N[C@@H](CCCCN)C(=O)N[C@@H](CCCNC(=N)N)C(=O)N[C@@H](CCCCN)C(=O)N[C@@H](CCCNC(=N)N)C(=O)N[C@@H](CCC(N)=O)C(=O)N[C@@H](CCC(N)=O)C(N)=O)[C@@H](C)CC)[C@@H](C)CC)[C@@H](C)O)[C@@H](C)O)C(C)C)C(C)C` [mellitin, reference compound]?
Minimal bactericidal concentration, Escherichia Coli ATCC 25922 [1]: >256 µg/mL; Minimal inhibitory concentration, Pseudomonas Aeruginosa ATCC 27853 [2]: >256 µg/mL; Minimal bactericidal concentration, Pseudomonas Aeruginosa ATCC 27853 [2]: >256 µg/mL; Minimal inhibitory concentration, clinical isolated methicillin resistant Staphylococcus Aureus strain [4]: 32 µg/mL (≈ 11.2 µM); Minimal bactericidal concentration, clinical isolated methicillin resistant Staphylococcus Aureus strain [4]: 128 µg/mL (≈ 45 µM)

With `CN[C@H](CC(C)C)C(=O)N[C@H]1C(=O)N[C@@H](CC(N)=O)C(=O)N[C@H]2C(=O)N[C@H]3C(=O)N[C@H](C(=O)N[C@H](C(=O)O)c4cc(O)cc(O)c4-c4cc3ccc4O)[C@H](O)c3ccc(c(Cl)c3)Oc3cc2cc(c3O[C@@H]2O[C@H](CO)[C@@H](O)[C@H](O)[C@H]2O[C@H]2C[C@](C)(N)[C@H](O)[C@H](C)O2)Oc2ccc(cc2Cl)[C@H]1O` [vancomycin, reference compound] as the compound, how does the MIC ([3]; Staphylococcus aureus, ATCC25923, read-out: Minimal inhibitory concentration, Staphylococcus Aureus ATCC) read?
The MIC was 2 µg/mL (≈ 1.38 µM).

What about the MIC ([4]; Staphylococcus aureus, read-out: Minimal inhibitory concentration, clinical isolated methicillin resistant Staphylococcus Aureus strain) of the same compound?
Its MIC is 1 µg/mL (≈ 0.69 µM).

From patent publication US8138145B2, “Hybrid oligomers, their preparation process and pharmaceutical compositions containing them” (Centre National de la Recherche Scientifique (SNRS), priority 2005, dated 2012)
